The record followed here is patent US20100104664A1, “TREATMENT OF CHRONIC RENAL FAILURE AND OTHER CONDITIONS IN DOMESTIC ANIMALS: COMPOSITIONS AND METHODS” (priority 2005, published 2010).

The subject of one data set is adult beagle dogs. Nature of the data set: Dog study, urine phosphate excretion. The conditions noted are these: 2250 mg elemental lanthanum twice daily, oral capsules, cross-over; urine approximately 24 hours after dosing. The format is in vivo. The procedure: Six adult beagle dogs were dosed orally with capsules of lanthanum oxycarbonate LaCO3OH (compound A) or La2O2CO3 (compound B) in a cross-over design using a dose of 2250 mg elemental lanthanum twice daily (6 hours apart). The doses were administered 30 minutes after provision of food to the animals. At least 14 days washout was allowed between the crossover arms. Plasma was obtained pre-dose and 1.5, 3, 6, 7.5, 9, 12, 24, 36, 48, 60, and 72 hours after dosing and analyzed for lanthanum using ICP-MS. Urine was collected by catheterization before and approximately 24 hours after dosing and creatinine and phosphorus concentrations measured.

Data set [1] is described as follows: physical and chemical properties of the phosphate binder. The data set is classed as physicochemical. The text has this:
The combination compositions of the present invention are benefited by the physical and chemical properties of the phosphate binders.

Data set [2] concerns Sprague-Dawley rats with 5/6th nephrectomy. As to the kind of experiment: In vivo study in 5/6th nephrectomy rats, urine phosphorus excretion. Also on record: species or system rat. The conditions noted are these: 314 mg elemental lanthanum/kg/day, oral lavage once daily for 14 days; compared to untreated rats. Here is the method:
Groups of six adult Sprague-Dawley rats underwent ⅚th nephrectomy in two stages over a period of 2 weeks and were then allowed to recover for a further two weeks prior to being randomized for treatment. The groups received vehicle (0.5% w/v carboxymethyl cellulose), or lanthanum oxycarbonate suspended in vehicle, once daily for 14 days by oral […] (10 ml/kg/day). The dose delivered 314 mg elemental lanthanum/kg/day. Dosing was carried out immediately before the dark (feeding) cycle on each day. Urine samples (24 hours) were collected prior to surgery, prior to the commencement of treatment, and twice weekly during the treatment period. Volume and phosphorus concentration were measured.
Feeding—During the acclimatization and surgery period, the animals were given Teklad phosphate sufficient diet (0.5% Ca, 0.3% P; Teklad No. TD85343), ad libitum. At the beginning of the treatment period, animals were pair fed based upon the average food consumption of the vehicle-treated animals the previous week.
⅚ Nephrectomy—After one week of acclimatization, all animals were subjected to ⅚ nephrectomy surgery. The surgery was performed in two stages. First, the two lower branches of the left renal artery were ligated. One week later, a right nephrectomy was performed. […]

Another data set has as its system dogs. As to the kind of experiment: Palatability study in dogs. The format is in vivo, dog. The conditions noted are these: during hours post meal, 9 dogs. An excerpt:
Lanthanum oxycarbonate was mixed with wet and dry dog food and presented to 9 different dogs, almost all over 40 pounds.

As for `O=C([O-])[O-].[La+3].[La+3].[O-2].[O-2]` [compound B, La2O2CO3], the “urine phosphate excretion, a marker of phosphorous binding” value in the data set on adult beagle dogs is “reduction of urine phosphate excretion”.
Still for that read-out and setting: under `O=C([O-])[O-].[La+3].[OH-]` [compound A, LaCO3OH] stands “reduction of urine phosphate excretion”.
In the case of lanthanum oxycarbonate, the “stability at high temperatures” value in data set [1] is reported as “stable at high temperatures”. The “solubility in aqueous media” value in data set [1] (pH above 2.0) is “sparingly soluble”. Besides, the “phosphorus excretion (urine), a marker of dietary phosphorus binding” value in data set [2] is reported as “decrease in phosphorus excretion”. Besides, the “signs of nausea, vomiting, bloating or flatus” value with dogs is on record as “None of the dogs exhibited signs of nausea, vomiting, bloating or flatus”.
Take `O=C([O-])[O-].[La+3].[OH-]` [lanthanum carbonate hydroxide]: the “phosphorus excretion (urine), a marker of dietary phosphorus binding” value in data set [2] is on record as “decrease in phosphorus excretion”.
